In ChEMBL document CHEMBL4393717, “Development of novel human lactate dehydrogenase A inhibitors: High-throughput screening, synthesis, and biological evaluations” (Eur J Med Chem, 2019):
Calls of active or inactive are those of the source. No cut-off for these calls is given here.

Tests used:
[1] = molecular target: T1, L-lactate dehydrogenase A chain (Homo sapiens, UniProt P00338); assay: Inhibition of LDHA in human MIAPaCa2 cells assessed as switch of pyruvate metabolism from lactate production to oxidative phosphorylation by measuring decrease in extracellular acidification rate at 1 to 10 uM incubated for 4 hrs; type: cell-based
MIA PaCa-2 [2] = assay: Induction of apoptosis in human MIAPaCa2 cells assessed as early apoptotic cells at 10 uM incubated for 12 hrs by annexin V and propidium iodide staining based flow cytometry analysis (reference value: 0.40 %); type: functional
MIA PaCa-2 [3] = assay: Cell cycle arrest in human MIAPaCa2 cells assessed as accumulation at G2 phase at 10 uM incubated for 24 hrs by propidium iodide staining based flow cytometry (reference value: 31.00%); type: functional
MIA PaCa-2 [4] = assay: Cell cycle arrest in human MIAPaCa2 cells assessed as accumulation at S phase at 5 uM incubated for 24 hrs by propidium iodide staining based flow cytometry (reference value: 12.99%); type: functional
MIA PaCa-2 [5] = assay: Induction of apoptosis in human MIAPaCa2 cells assessed as early apoptotic cells at 5 uM incubated for 12 hrs by annexin V and propidium iodide staining based flow cytometry analysis (reference value: 0.40 %); type: functional
MIA PaCa-2 [6] = assay: Antiproliferative activity against human MIAPaCa2 cells assessed as reduction in cell viability incubated for 72 hrs by MTT assay; type: functional, cell-based; conditions: MIA PaCa-2, 72 h
MIA PaCa-2 [7] = assay: Induction of apoptosis in human MIAPaCa2 cells assessed as viable cells at 5 uM incubated for 12 hrs by annexin V and propidium iodide staining based flow cytometry analysis (reference value: 94.85 %); type: functional; conditions: MIA PaCa-2, 12 h, read-out: Activity
MIA PaCa-2 [8] = assay: Antitumor activity against human MIAPaCa2 cells xenografted in nude mouse assessed as reduction in tumor growth at 10 mg/kg administered once daily for 21 days measured twice a week; type: functional, organism-based
[9] = Toxicity in nude mouse xenografted with human MIAPaCa2 cells assessed as reduction in body weight at 10 mg/kg administered once daily for 21 days measured twice a week; type: organism-based; conditions: in vivo, 504 h
[10] = molecular target: T1, L-lactate dehydrogenase A chain; assay: Inhibition of LDHA in human MIAPaCa2 cells assessed as switch of pyruvate metabolism from lactate production to oxidative phosphorylation by measuring reduction in lactate formation at 1 to 10 uM incubated for 4 hrs; type: cell-based
MIA PaCa-2 [11] = assay: Inhibition of colony formation in human MIAPaCa2 cells treated for 3 days and supplemented with fresh medium with out compound every 3 days measured after 15 days by crystal violet staining based assay; type: functional, cell-based
MIA PaCa-2 [12] = assay: Cell cycle arrest in human MIAPaCa2 cells assessed as accumulation at S phase at 10 uM incubated for 24 hrs by propidium iodide staining based flow cytometry (reference value: 12.99%); type: functional
MIA PaCa-2 [13] = assay: Cell cycle arrest in human MIAPaCa2 cells assessed as increase in accumulation at G2 phase incubated for 24 hrs by propidium iodide staining based flow cytometry; type: functional
[14] = molecular target: T1, L-lactate dehydrogenase A chain; assay: Inhibition of LDHA in human MIAPaCa2 cells assessed as switch of pyruvate metabolism from lactate production to oxidative phosphorylation by measuring increase in oxygen consumption rate at 1 to 10 uM incubated for 4 hrs; type: cell-based
MIA PaCa-2 [15] = assay: Induction of apoptosis in human MIAPaCa2 cells assessed as early apoptotic cells at 1 uM incubated for 12 hrs by annexin V and propidium iodide staining based flow cytometry analysis (reference value: 0.40 %); type: functional
MIA PaCa-2 [16] = assay: Induction of apoptosis in human MIAPaCa2 cells assessed as late apoptotic cells at 5 uM incubated for 12 hrs by annexin V and propidium iodide staining based flow cytometry analysis (reference value: 3.21 %); type: functional
MIA PaCa-2 [17] = assay: Inhibition of colony formation in human MIAPaCa2 cells at 0.5 uM treated for 3 days and supplemented with fresh medium with out compound every 3 days measured after 15 days by crystal violet staining based assay; type: functional, cell-based
MIA PaCa-2 [18] = assay: Induction of apoptosis in human MIAPaCa2 cells incubated for 12 hrs by Annexin V-FITC/propidium iodide staining based flow cytometry; type: functional, cell-based
MIA PaCa-2 [19] = assay: Induction of apoptosis in human MIAPaCa2 cells assessed as viable cells at 1 uM incubated for 12 hrs by annexin V and propidium iodide staining based flow cytometry analysis (reference value: 94.85 %); type: functional; conditions: MIA PaCa-2, 12 h, read-out: Activity
MIA PaCa-2 [20] = assay: Induction of apoptosis in human MIAPaCa2 cells assessed as necrotic cells at 5 uM incubated for 12 hrs by annexin V and propidium iodide staining based flow cytometry analysis (reference value: 1.54 %); type: functional
MIA PaCa-2 [21] = assay: Induction of apoptosis in human MIAPaCa2 cells assessed as late apoptotic cells at 1 uM incubated for 12 hrs by annexin V and propidium iodide staining based flow cytometry analysis (reference value: 3.21 %); type: functional
MIA PaCa-2 [22] = assay: Antitumor activity against human MIAPaCa2 cells xenografted in mouse assessed as reduction in tumor weight at 10 mg/kg administered once daily for 21 days measured twice a week; type: functional, organism-based
MIA PaCa-2 [23] = assay: Induction of apoptosis in human MIAPaCa2 cells assessed as necrotic cells at 10 uM incubated for 12 hrs by annexin V and propidium iodide staining based flow cytometry analysis (reference value: 1.54 %); type: functional
MIA PaCa-2 [24] = assay: Cell cycle arrest in human MIAPaCa2 cells assessed as accumulation at G2 phase at 1 uM incubated for 24 hrs by propidium iodide staining based flow cytometry (reference value: 31.00%); type: functional
A549 = assay: Antiproliferative activity against human A549 cells assessed as reduction in cell viability at incubated for 72 hrs by MTT assay; type: functional, cell-based; conditions: A549, 72 h
MIA PaCa-2 [25] = assay: Cell cycle arrest in human MIAPaCa2 cells assessed as accumulation at G1 phase at 10 uM incubated for 24 hrs by propidium iodide staining based flow cytometry (reference value: 56.01%); type: functional
MIA PaCa-2 [26] = assay: Inhibition of colony formation in human MIAPaCa2 cells at 1 uM treated for 3 days and supplemented with fresh medium with out compound every 3 days measured after 15 days by crystal violet staining based assay; type: functional
[27] = molecular target: T1, L-lactate dehydrogenase A chain; assay: Inhibition of recombinant human full-length N-terminal His-tagged LDHA (1 to 332 residues) expressed in Escherichia coli using sodium pyruvate as substrate incubated for 10 mins
MIA PaCa-2 [28] = assay: Induction of apoptosis in human MIAPaCa2 cells assessed as late apoptotic cells at 10 uM incubated for 12 hrs by annexin V and propidium iodide staining based flow cytometry analysis (reference value: 3.21 %); type: functional
MIA PaCa-2 [29] = assay: Cell cycle arrest in human MIAPaCa2 cells assessed as accumulation at S phase at 1 uM incubated for 24 hrs by propidium iodide staining based flow cytometry (reference value: 12.99%); type: functional
MIA PaCa-2 [30] = assay: Cell cycle arrest in human MIAPaCa2 cells assessed as accumulation at G2 phase at 5 uM incubated for 24 hrs by propidium iodide staining based flow cytometry (reference value: 31.00%); type: functional
MIA PaCa-2 [31] = assay: Cell cycle arrest in human MIAPaCa2 cells assessed as accumulation at G1 phase at 1 uM incubated for 24 hrs by propidium iodide staining based flow cytometry (reference value: 56.01%); type: functional
MIA PaCa-2 [32] = assay: Cell cycle arrest in human MIAPaCa2 cells assessed as accumulation at G1 phase at 5 uM incubated for 24 hrs by propidium iodide staining based flow cytometry (reference value: 56.01%); type: functional
MIA PaCa-2 [33] = assay: Induction of apoptosis in human MIAPaCa2 cells assessed as viable cells at 10 uM incubated for 12 hrs by annexin V and propidium iodide staining based flow cytometry analysis (reference value: 94.85 %); type: functional; conditions: MIA PaCa-2, 12 h, read-out: Activity
MIA PaCa-2 [34] = assay: Induction of apoptosis in human MIAPaCa2 cells assessed as necrotic cells at 1 uM incubated for 12 hrs by annexin V and propidium iodide staining based flow cytometry analysis (reference value: 1.54 %); type: functional

O=C(c1ccco1)N1CCN(Cc2cc(=O)c(OCc3ccccc3F)co2)CC1
inhibition [1]: Active
Activity (MIA PaCa-2 [2]): 3.79%
Activity (MIA PaCa-2 [3]): 59.99%
Activity (MIA PaCa-2 [4]): 13.37%
Activity (MIA PaCa-2 [5]): 3.47%
IC50 (MIA PaCa-2 [6]): 2100 nM
viability at 5 µM (MIA PaCa-2 [7]): 66.6%
Activity (MIA PaCa-2 [8]): Active
Activity [9]: Non-Toxic
inhibition [10]: Active
inhibition (MIA PaCa-2 [11]): Dose-dependent effect
Activity (MIA PaCa-2 [12]): 3.8%
Activity (MIA PaCa-2 [13]): Dose-dependent effect
inhibition [14]: Active
Activity (MIA PaCa-2 [15]): 1.14%
Activity (MIA PaCa-2 [16]): 19.86%
inhibition (MIA PaCa-2 [17]): Active
Activity (MIA PaCa-2 [18]): Dose-dependent effect
viability at 1 µM (MIA PaCa-2 [19]): 89.8%
Activity (MIA PaCa-2 [20]): 10.1%
Activity (MIA PaCa-2 [21]): 5.79%
Activity (MIA PaCa-2 [22]): Active
Activity (MIA PaCa-2 [23]): 13.38%
Activity (MIA PaCa-2 [24]): 38.52%
IC50 (A549): 7800 nM
Activity (MIA PaCa-2 [25]): 36.21%
inhibition at 1 µM (MIA PaCa-2 [26]): 100%
EC50 [27]: 90 nM
Activity (MIA PaCa-2 [28]): 27.68%
Activity (MIA PaCa-2 [29]): 12.29%
Activity (MIA PaCa-2 [30]): 42.12%
Activity (MIA PaCa-2 [31]): 49.19%
Activity (MIA PaCa-2 [32]): 44.51%
viability at 10 µM (MIA PaCa-2 [33]): 55.1%
Activity (MIA PaCa-2 [34]): 3.23%
